The source of these data is patent publication US20200383985A1, “Inhibitors of Protease Activated Receptor-2” (Endosome Therapeutics, Inc., priority 2017, published 2020).

Holding throughout (assay type): cell-based
The test system of test [1] is cytosolic and nuclear ERK. Description: FRET assays of cytosolic and nuclear ERK in HEK293 cells. As to conditions: AG1478 1 μM, UBO-QIC 100 nM, G66983 1 μM. The procedure: Trypsin-induced ERK signaling mediated by endosomal PAR2 signaling was investigated in HEK293 cells expressing Flag-PAR2-HA11 and FRET biosensors for cytosolic and nuclear ERK (CytoEKAR, NucEKAR), plasma membrane and cytosolic PKC (pmCKAR, CytoCKAR), and plasma membrane and cytosolic cAMP (pmEpac, CytoEpac). […] I-343 (10 μM) but not SCH530348 (100 nM) inhibited trypsin activation of cytosolic and nuclear ERK (FIG. 5G). PS2 and DynK44E inhibited trypsin-stimulated activation of cytosolic and nuclear ERK when compared to PS2 inact and DynWT controls (FIG. 5H, 5I, 17G-J). AG1478 (1 μM), an inhibitor of EGF receptor tyrosine kinase (Levitzki, A. & Gazit, A. Science 1995, 267(5205): 1782-1788), UBO-QIC (100 nM), which inhibits Gαq and certain Gβγ signals ([…]), and G66983 (1 μM), which inhibits all isoforms of PKC (Gschwendt, M, et al., FEBS Lett 1996, 392(2): 77-80), suppressed trypsin-stimulated activation of cytosolic ERK (FIGS. 5J and 17K).
HEK293 cells were cultured in DMEM supplemented with 10% (v/v) FBS (5% CO2, 37° C.). When necessary serum restriction was achieved by replacing culture medium with DMEM containing 0.5% FBS overnight. Cells were transiently transfected using polyethylenimine (PEI) (1:6 DNA:PEI).
HEK293 cells were transiently transfected in 10 cm dishes (˜50% confluency) with Flag-PAR2-HA (2.5 μg) and FRET biosensors CytoEKAR or NucEKAR (2.5 μg) (Jensen, D. D. et al., Sci Transl Med. 2017, 9(392), eaal3447; Thomsen, A. R. B., et al., Cell 2016, 166(4): 907-919). In experiments examining the role of dynamin, cells were transfected with FLAG-PAR2-HA (1.25 μg), FRET biosensor (1.25 μg) and either DynWT-HA, DynK44E-HA or pcDNA3.1 (2.5 μg). At 24 h after transfection, cells were seeded on ViewPlate-96 well plates (PerkinElmer). FRET was assessed 72 h post-transfection, following overnight serum restriction. Cells were equilibrated in HBSS-HEPES (30 min, 37° C.). FRET was measured using a PHERAstar FSX Microplate Reader (BMG LabTech). For CFP/YFP emission ratio analysis, cells were sequentially excited using a CFP filter (425/10 nm) with emission measured using YFP (550/50 nm) and CFP (490/20 nm) filters. FRET was measured before and after stimulation with trypsin (10 nM), NE (100 nM), CS (100 nM), phorbol 12,13-dibutyrate, PDBu (positive control, 1 μM), or vehicle. FRET ratios (donor/acceptor intensity for EKAR, or acceptor/donor intensity for CKAR and Epac) were calculated and corrected to baseline and vehicle treatments to determine ligand-induced FRET (ΔFRET). Treatment effects were determined by comparison of area under the curve values. Signalling inhibitors were dissolved in HBSS-HEPES. PS2 and PS2 inact were dissolved in HBSS-HEPES+1% DMSO. Cells were incubated with UBO-QIC (100 nM), AG1478 (1 μM), G66983 (1 μM), PS2 or PS2 inact (30 μM) or vehicle (30 min preincubation, inclusion throughout).

Another test has as its target T1, human (h) PAR2 (Homo sapiens, UniProt P55085).
T1 construct: expressed in transfected cells; host or cells: KNRK cells (KNRK-hPAR2)
T1 sequence (P55085 26-397): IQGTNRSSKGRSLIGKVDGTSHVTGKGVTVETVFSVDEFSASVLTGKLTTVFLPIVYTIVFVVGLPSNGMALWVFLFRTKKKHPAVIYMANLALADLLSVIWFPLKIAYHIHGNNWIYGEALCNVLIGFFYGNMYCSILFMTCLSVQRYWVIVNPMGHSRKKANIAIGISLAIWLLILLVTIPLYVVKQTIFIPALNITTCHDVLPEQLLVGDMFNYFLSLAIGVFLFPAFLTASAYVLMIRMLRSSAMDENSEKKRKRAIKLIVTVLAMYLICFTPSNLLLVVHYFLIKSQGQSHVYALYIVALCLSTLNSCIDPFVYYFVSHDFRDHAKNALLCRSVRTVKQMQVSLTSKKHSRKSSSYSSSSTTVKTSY
Briefly: IP1 accumulation assay in KNRK-hPAR2 cells. As to conditions: 100 nM 2F; 30 μM of antagonist; read-out: KNRK-PAR2 100 nM 2F: ND (inhibition of 2F at 30 μM of antagonist). The procedure: (§1) KNRK-hPAR2, KNRK or HT-29 cells were seeded at a density of 50×10^3 cells/well in a clear poly-d-lysine coated 96 well tissue culture plate. Following 24 h incubation at 37° C. and 5% CO2, media was removed and replaced with 80 μl IP1 stimulation buffer (10 mM HEPES, 1 mM CaCl2, 0.5 mM MgCl2, 4.2 mM KCl, 146 mM NaCl, 5.5 mM glucose, 50 mM LiCl). Following stimulation buffer addition, the wells received 10 μl of 10× antagonists or DMSO vehicle. All plates were further incubated at 37° C., 5% CO2 for 30 min. 10 μl of 2F or ATP was added to the plates and further incubated for 40 min. Following incubation, stimulation buffer was quickly removed by aspiration and replaced with 25 μl lysis buffer (IP-One HTRF® assay kit, Cisbio). Following incubation of the lysates at 37° C., 5% CO2 for 10′, 10 μl lysate was transferred to a 384-well OptiPlate (PerkinElmer) and detected using the IP-One HTRF® assay kit (Cisbio).
(§2) Compounds of the invention (added at 10×concentrations in a 10 μL volume) were incubated for 30 min prior to the addition of 10 μM ATP or 100 nM or 300 nM PAR2 agonist (2F; EC80, added at 10×concentrations in a 10 μL volume) and then further incubated for 40 min. After lysis, the inositol phosphate 1 was quantified with IP-One HTRF® assay kit, Cisbio. The data was analysed with Prism, GraphPad to calculate the IC50 values, shown below in Table 1.
(§3) Inhibition of PAR2 signaling with known PAR2 inhibitor I-343 (FIG. 14A) was investigated in HT-29 cells and HEK293 cells, which express endogenous PAR2, and in KNRK cells expressing human (h) PAR2. Accumulation of inositol phosphate-1 (IP1) was measured in response to the PAR2-selective agonist 2-Furoyl-LIGRLO-NH2 (2F), an analogue of the trypsin-exposed tethered ligand, or trypsin.
(§4) KNRK-hPAR2, KNRK, HEK293, or HT-29 cells were seeded at a density of 50×10^3 cells/well onto clear 96-well plates (PerkinElmer). After 24 h of culture, medium was replaced with IP1 stimulation buffer (10 mM HEPES, 1 mM CaCl2, 0.5 mM MgCl2, 4.2 mM KCl, 146 mM NaCl, 5.5 mM glucose, 50 mM LiCl; 37° C., 5% CO2.). Cells were pre-incubated with the antagonist or vehicle for 30 min prior to the addition of agonist. Cells were then further incubated for 40 min. Stimulation buffer was […]

A further test deals with T2, PAR2 (Homo sapiens, UniProt P55085).
T2 construct: HT-29 cells and HEK293 cells, which express endogenous PAR2; endogenous in cells; host or cells: HT-29
T2 sequence (P55085 26-397): T1 sequence (P55085 26-397)
Briefly: IP1 accumulation assay in HT-29 cells (endogenous PAR2). Conditions: 2F (300 nM)-induced IP1, HT-29 cells. How it is done: as §1, §2, §3, §4

The mark [2] stands for this setting: read-out: HT-29 300 nM 2F (IC50).

Where two headings read alike, the source gives them in different places. A value given as a limit tells only on which side of the number the result lay.

In the case of `COc1cc2ncnc(Nc3cccc(Cl)c3)c2cc1OC` [AG1478], the “trypsin-stimulated activation of cytosolic ERK” value in test [1] was “suppressed”.

Broadly, the inhibition is the share of the control response that was lost under treatment. Regarding `CC(C)CCC[C@@H](C)[C@H]1CCC2C3CCC4C[C@@H](OC(=O)C[C@H](NC(=O)CCOCCOCCOCCOCCOCCOCCOCCOCCNC(=O)Cn5cc(C(=O)N6CCN(C(=O)c7cn8nc(-c9ccc(F)cc9)cc(C(C)(C)C)c8n7)C(C)(C)C6)nn5)C(N)=O)CC[C@]4(C)C3CC[C@@]21C` (stereo partly drawn) [Compound 12, (3S,10S,13R,17R)-10,13-dimethyl-17-((R)-6-methylheptan-2-yl)hexadecahydro-1H-cyclopenta[a]phenanthren-3-yl (32S)-1-(4-(4-(8-(tert-butyl)-6-(4-fluorophenyl)imidazo[1,2-b]pyridazine-2-carbonyl)-3,3-dimethylpiperazine-1-carbonyl)-1H-1,2,3-triazol-1-yl)-32-carbamoyl-2,30-dioxo-6,9,12,15,18,21,24,27-octaoxa-3,31-diazatetratriacontan-34-oate], the inhibition at 30 µM at human (h) PAR2 is < 50%. The IC50 at PAR2 (setting [2]) came out at 0.827 µM.

As for `CC(C)CCC[C@@H](C)[C@H]1CCC2C3CCC4C[C@@H](OC(=O)C[C@H](NC(=O)CCOCCOCCOCCOCCOCCOCCOCCOCCNC(=O)CCCNC(=O)Cn5cc(C(=O)N6CCN(C(=O)c7cn8nc(-c9ccc(F)cc9)cc(C(C)(C)C)c8n7)C(C)(C)C6)nn5)C(N)=O)CC[C@]4(C)C3CC[C@@]21C` (stereo partly drawn) [Compound 13, (3S,10S,13R,17R)-10,13-dimethyl-17-((R)-6-methylheptan-2-yl)hexadecahydro-1H-cyclopenta[a]phenanthren-3-yl (37S)-1-(4-(4-(8-(tert-butyl)-6-(4-fluorophenyl)imidazo[1,2-b]pyridazine-2-carbonyl)-3,3-dimethylpiperazine-1-carbonyl)-1H-1,2,3-triazol-1-yl)-37-carbamoyl-2,7,35-trioxo-11,14,17,20,23,26,29,32-octaoxa-3,8,36-triazanonatriacontan-39-oate], the inhibition at 30 µM at human (h) PAR2 is < 50%. Moreover, the IC50 on PAR2 (setting [2]) stood at 0.736 µM.

`CC(C)CCC[C@@H](C)[C@H]1CC[C@H]2[C@@H]3CCC4CC(OC(=O)C[C@H](NC(=O)CCOCCOCCOCCOCCOCCOCCNC(=O)[C@H](CCCNC(=N)N)NC(=O)CCOCCOCCOCCOCCOCCOCCNC(=O)Cn5cc(C(=O)N6CCN(C(=O)c7cn8nc(-c9ccc(F)cc9)cc(C(C)(C)C)c8n7)C(C)(C)C6)nn5)C(N)=O)CC[C@]4(C)[C@H]3CC[C@]12C` (stereo partly shown) [Compound 14]: the inhibition at 30 µM on human (h) PAR2 was < 50%. Further, the IC50 at PAR2 (setting [2]) was determined as 1.55 µM.

As for `CCCCCCCCCCCCCCCCNC(=O)C[C@H](NC(=O)CCOCCOCCOCCOCCOCCOCCOCCOCCOCCOCCOCCOCCNC(=O)Cn1cc(C(=O)N2CCN(C(=O)c3cn4nc(-c5ccc(F)cc5)cc(C(C)(C)C)c4n3)C(C)(C)C2)nn1)C(N)=O` [Compound 15, (S)-3-(1-(4-(4-(8-(tert-butyl)-6-(4-fluorophenyl)imidazo[1,2-b]pyridazine-2-carbonyl)-3,3-dimethylpiperazine-1-carbonyl)-1H-1,2,3-triazol-1-yl)-2-oxo-6,9,12,15,18,21,24,27,30,33,36,39-dodecaoxa-3-azadotetracontan-42-amido)-N1-hexadecylsuccinamide], at human (h) PAR2, the inhibition at 30 µM is < 50%. The IC50 at PAR2 (read-out: HT-29 300 nM 2F pIC50 ± SEM (converted)) is 0.0472 µM.

Regarding `CC(C)CCC[C@@H](C)[C@H]1CC[C@H]2[C@@H]3CC[C@@H]4C[C@@H](OC(=O)C[C@H](NC(=O)CCOCCOCCOCCOCCOCCOCCNC(=O)[C@@H](O)[C@H](O)[C@H](O)[C@@H](O)C(=O)NC5CCC(C(=O)N6CCN(C(=O)c7cn8nc(-c9ccc(F)cc9)cc(C(C)(C)C)c8n7)C(C)(C)C6)CC5)C(N)=O)CC[C@]4(C)[C@H]3CC[C@]12C` (stereo partly drawn) [Compound 16, (3S,5R,8R,9S,10S,13R,14S,17R)-10,13-dimethyl-17-((R)-6-methylheptan-2-yl)hexadecahydro-1H-cyclopenta[a]phenanthren-3-yl (3S,28S,29R,30S,31R)-32-((4-(4-(8-(tert-butyl)-6-(4-fluorophenyl)imidazo[1,2-b]pyridazine-2-carbonyl)-3,3-dimethylpiperazine-1-carbonyl)cyclohexyl)amino)-3-carbamoyl-28,29,30,31-tetrahydroxy-5,27,32-trioxo-8,11,14,17,20,23-hexaoxa-4,26-diazadotriacontanoate], the inhibition at 30 µM on human (h) PAR2 was < 50%. The IC50 at PAR2 (setting [2]) amounted to 2.07 µM.

As to `CC(C)CCC[C@@H](C)[C@H]1CC[C@H]2[C@@H]3CC=C4C[C@@H](OC(=O)NCCCC[C@@H](NC(=O)CCOCCOCCOCCOCCOCCOCCOCCOCCOCCOCCOCCOCCNC(=O)Cn5cc(C(=O)N6CCN(C(=O)c7cn8nc(-c9ccc(F)cc9)cc(C(C)(C)C)c8n7)C(C)(C)C6)nn5)C(=O)NN)CC[C@]4(C)[C@H]3CC[C@]12C` [Compound 17], the inhibition at 30 µM on human (h) PAR2 is < 50%. Also, the IC50 on PAR2 (setting [2]) was found to be 5.63 µM.
